The target of test [1] is RAC-beta serine/threonine-protein kinase (Homo sapiens) (UniProt P31751). The test is described as follows: Selectivity interaction (Kinase panel (KiNativ target engagement assay in Jurkat cells)) EUB0001635a AKT2. The test is classed as cell-based. The note with it: at 1 µM.
Test [2] deals with T1, Serine/threonine-protein kinase RIO3 (Homo sapiens) (UniProt O14730).
T1 sequence (whole entry): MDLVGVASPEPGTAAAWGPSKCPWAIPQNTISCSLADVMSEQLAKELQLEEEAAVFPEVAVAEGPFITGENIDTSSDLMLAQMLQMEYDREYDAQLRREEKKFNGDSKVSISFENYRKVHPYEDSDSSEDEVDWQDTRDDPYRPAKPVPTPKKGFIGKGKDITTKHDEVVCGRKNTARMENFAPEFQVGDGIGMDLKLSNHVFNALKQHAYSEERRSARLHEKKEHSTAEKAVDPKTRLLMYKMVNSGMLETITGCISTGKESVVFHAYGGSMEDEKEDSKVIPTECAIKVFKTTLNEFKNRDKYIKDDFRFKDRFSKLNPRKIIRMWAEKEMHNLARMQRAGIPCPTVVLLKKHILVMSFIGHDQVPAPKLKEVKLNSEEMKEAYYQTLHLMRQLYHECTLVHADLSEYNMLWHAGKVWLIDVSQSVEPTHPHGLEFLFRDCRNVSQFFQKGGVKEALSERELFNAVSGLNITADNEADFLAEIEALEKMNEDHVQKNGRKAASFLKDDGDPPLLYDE
In words: Selectivity interaction (Ambit KINOMEscan and KiNATiv profiling in Jurkat cells) EUB0000090b RIOK3. The test is classed as cell-based. The note with it: at 1 µM.

Test [3] deals with T2, Interleukin-1 receptor-associated kinase 3 (Homo sapiens) (UniProt Q9Y616).
T2 sequence (whole entry): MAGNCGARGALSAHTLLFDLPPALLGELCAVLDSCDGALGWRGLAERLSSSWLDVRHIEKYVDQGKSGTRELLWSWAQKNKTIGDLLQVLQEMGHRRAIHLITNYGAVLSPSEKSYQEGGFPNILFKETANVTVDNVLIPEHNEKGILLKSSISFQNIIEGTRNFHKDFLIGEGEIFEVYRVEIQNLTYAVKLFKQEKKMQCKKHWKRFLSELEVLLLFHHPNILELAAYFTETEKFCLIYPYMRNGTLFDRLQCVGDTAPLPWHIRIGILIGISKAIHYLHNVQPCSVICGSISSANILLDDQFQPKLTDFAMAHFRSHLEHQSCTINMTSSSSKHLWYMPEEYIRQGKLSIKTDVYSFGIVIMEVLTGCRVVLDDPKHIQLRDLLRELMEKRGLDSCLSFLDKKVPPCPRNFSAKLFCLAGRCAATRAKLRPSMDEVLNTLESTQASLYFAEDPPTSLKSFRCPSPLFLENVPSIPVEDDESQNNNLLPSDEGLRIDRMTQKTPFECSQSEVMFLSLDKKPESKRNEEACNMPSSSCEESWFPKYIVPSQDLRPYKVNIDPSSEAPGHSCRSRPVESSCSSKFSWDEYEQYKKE
Conditions: at 10 µM.

The target of test [4] is Serine/threonine-protein kinase SIK3 (Homo sapiens) (UniProt Q9Y2K2). Conditions: at 10 µM.
Chain of Serine/threonine-protein kinase SIK3 (Homo sapiens) (Q9Y2K2 whole entry, looked up): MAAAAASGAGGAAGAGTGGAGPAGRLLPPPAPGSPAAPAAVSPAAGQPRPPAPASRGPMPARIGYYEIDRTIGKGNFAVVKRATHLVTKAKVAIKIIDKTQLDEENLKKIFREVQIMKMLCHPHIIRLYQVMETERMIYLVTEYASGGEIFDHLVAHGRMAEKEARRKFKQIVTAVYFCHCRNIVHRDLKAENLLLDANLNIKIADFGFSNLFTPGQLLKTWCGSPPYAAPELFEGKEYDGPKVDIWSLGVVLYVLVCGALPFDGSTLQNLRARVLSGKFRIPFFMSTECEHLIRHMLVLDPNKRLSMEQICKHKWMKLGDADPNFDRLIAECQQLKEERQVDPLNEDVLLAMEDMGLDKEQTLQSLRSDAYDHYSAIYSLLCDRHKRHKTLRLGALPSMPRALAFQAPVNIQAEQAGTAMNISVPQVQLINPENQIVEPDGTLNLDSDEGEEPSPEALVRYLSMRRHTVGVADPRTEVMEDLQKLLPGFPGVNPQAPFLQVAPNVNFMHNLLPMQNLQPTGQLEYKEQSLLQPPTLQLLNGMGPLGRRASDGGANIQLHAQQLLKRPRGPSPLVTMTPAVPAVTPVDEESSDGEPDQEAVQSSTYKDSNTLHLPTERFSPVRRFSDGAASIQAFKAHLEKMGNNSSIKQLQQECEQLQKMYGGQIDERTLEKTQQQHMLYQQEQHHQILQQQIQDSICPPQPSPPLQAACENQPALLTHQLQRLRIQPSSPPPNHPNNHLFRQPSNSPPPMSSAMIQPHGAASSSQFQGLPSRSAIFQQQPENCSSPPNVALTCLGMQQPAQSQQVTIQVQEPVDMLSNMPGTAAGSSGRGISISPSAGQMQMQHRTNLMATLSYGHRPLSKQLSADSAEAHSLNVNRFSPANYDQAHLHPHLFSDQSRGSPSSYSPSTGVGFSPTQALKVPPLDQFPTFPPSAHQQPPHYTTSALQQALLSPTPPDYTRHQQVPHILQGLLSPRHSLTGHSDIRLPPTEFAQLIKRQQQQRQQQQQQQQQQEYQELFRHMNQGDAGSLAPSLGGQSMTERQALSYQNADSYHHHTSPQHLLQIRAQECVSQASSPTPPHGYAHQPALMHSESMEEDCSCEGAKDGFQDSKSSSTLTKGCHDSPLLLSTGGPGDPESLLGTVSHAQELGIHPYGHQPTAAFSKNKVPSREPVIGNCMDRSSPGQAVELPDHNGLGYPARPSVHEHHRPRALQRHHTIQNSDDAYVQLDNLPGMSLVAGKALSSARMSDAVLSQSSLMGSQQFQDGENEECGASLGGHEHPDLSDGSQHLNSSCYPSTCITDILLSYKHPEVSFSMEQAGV
Test [5] deals with Protein-tyrosine kinase 6 (Homo sapiens, UniProt Q13882). In words: Selectivity interaction (KinomeScan (DiscoverX)) EUB0000666a PTK6. Conditions: at 10 µM.
Chain of Protein-tyrosine kinase 6 (Q13882 whole entry, looked up): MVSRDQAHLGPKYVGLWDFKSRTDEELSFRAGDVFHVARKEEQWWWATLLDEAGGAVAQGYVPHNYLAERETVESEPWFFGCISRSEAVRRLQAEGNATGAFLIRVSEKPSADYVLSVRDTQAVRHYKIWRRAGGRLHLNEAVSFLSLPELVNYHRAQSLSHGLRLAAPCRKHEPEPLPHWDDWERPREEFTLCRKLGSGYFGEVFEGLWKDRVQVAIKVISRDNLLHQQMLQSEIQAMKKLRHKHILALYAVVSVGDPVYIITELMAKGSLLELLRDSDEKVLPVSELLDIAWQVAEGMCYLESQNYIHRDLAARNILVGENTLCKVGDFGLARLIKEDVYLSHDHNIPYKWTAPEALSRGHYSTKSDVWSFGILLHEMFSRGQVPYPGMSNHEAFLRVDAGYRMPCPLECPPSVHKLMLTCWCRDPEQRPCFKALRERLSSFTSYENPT
In test [6] the target is Dual specificity protein kinase CLK3 (Homo sapiens, UniProt P49761). In words: Selectivity interaction (KinomeScan (DiscoverX)) EUB0001619a CLK3. Conditions: at 1 µM.
Chain of Dual specificity protein kinase CLK3 (P49761 whole entry, looked up): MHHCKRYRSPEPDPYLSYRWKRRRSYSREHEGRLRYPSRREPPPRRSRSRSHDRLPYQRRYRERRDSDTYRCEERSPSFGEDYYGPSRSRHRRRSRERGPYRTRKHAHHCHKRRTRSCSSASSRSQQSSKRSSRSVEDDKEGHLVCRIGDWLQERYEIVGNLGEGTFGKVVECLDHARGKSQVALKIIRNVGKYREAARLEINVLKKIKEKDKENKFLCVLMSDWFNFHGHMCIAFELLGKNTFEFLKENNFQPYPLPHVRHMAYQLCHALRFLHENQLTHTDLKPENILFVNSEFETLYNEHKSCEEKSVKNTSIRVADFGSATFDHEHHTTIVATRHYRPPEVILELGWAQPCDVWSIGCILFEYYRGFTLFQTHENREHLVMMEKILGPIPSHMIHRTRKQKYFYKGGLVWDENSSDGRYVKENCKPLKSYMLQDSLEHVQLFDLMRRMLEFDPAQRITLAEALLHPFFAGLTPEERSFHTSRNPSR
For test [7], the target named is Tyrosine-protein kinase BTK (Homo sapiens, UniProt Q06187). In words: Selectivity interaction (Millipore kinase profiler) EUB0000124b BTK. Conditions: at 10 µM.
Chain of Tyrosine-protein kinase BTK (Q06187 whole entry): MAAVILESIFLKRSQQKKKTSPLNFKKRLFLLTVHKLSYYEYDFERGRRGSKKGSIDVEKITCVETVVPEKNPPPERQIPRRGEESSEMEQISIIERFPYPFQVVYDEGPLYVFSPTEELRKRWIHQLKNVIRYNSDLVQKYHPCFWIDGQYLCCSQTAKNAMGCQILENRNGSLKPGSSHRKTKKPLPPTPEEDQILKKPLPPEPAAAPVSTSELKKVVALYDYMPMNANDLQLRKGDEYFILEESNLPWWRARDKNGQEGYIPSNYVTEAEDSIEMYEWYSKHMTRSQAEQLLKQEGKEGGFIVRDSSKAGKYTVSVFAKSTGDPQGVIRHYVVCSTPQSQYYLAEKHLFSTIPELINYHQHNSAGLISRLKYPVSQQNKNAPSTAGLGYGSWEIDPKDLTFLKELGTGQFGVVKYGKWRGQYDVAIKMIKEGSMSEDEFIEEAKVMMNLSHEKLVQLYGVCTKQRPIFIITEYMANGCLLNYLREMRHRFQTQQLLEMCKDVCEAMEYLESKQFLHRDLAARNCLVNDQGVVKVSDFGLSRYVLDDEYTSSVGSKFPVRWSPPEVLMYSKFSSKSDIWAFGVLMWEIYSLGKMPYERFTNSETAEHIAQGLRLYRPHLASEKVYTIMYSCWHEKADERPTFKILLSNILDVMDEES
For test [8], the target named is T3, Serine/threonine-protein kinase tousled-like 1 (Homo sapiens) (UniProt Q9UKI8).
T3 sequence (whole entry): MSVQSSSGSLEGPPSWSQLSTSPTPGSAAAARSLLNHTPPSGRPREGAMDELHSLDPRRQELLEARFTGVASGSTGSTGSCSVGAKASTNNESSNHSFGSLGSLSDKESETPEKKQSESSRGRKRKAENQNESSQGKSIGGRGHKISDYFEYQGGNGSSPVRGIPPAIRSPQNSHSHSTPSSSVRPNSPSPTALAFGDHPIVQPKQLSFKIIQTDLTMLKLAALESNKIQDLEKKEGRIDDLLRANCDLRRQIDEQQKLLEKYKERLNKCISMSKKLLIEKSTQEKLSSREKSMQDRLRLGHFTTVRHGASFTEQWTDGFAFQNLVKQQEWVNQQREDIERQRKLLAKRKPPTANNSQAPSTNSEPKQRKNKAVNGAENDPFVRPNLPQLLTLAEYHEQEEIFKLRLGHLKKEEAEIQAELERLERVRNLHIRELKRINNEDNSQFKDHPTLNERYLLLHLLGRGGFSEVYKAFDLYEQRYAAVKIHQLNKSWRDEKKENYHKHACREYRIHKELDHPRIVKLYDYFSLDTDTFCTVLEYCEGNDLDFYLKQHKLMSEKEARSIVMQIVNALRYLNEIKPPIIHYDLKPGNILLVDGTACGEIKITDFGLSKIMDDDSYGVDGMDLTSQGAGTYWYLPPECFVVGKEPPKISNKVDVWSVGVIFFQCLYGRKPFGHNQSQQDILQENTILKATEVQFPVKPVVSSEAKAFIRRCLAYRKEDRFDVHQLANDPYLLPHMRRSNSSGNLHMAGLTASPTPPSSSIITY
The test is described as follows: Selectivity interaction (KinomeScan (DiscoverX)) EUB0001049a TLK1. The note with it: at 1 µM.

Test [9] has as its target Phosphatidylinositol 4-kinase beta (Homo sapiens, UniProt Q9UBF8). The test is described as follows: Selectivity interaction (KinomeScan (DiscoverX)) EUB0000695a PI4KB. Conditions: at 100 nM.
For test [10], the target named is Tyrosine-protein kinase Srms (Homo sapiens) (UniProt Q9H3Y6). In words: Selectivity interaction (KinomeScan (DiscoverX)) EUB0000045b SRMS.
Chain of Tyrosine-protein kinase Srms (Homo sapiens) (Q9H3Y6 whole entry): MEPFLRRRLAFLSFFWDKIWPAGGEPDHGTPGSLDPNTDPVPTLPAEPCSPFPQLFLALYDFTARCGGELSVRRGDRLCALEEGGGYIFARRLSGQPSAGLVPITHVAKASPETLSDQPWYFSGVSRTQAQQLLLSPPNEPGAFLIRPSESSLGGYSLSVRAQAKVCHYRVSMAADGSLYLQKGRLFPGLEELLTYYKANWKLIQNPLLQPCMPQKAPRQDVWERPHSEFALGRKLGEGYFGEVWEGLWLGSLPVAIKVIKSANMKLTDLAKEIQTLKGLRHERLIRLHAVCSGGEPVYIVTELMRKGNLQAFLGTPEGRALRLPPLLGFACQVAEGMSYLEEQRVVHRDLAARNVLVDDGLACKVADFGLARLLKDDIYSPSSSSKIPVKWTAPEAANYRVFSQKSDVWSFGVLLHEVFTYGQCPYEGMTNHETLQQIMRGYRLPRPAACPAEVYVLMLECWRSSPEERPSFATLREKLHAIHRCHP

Chain of RAC-beta serine/threonine-protein kinase (Homo sapiens) (P31751 whole entry): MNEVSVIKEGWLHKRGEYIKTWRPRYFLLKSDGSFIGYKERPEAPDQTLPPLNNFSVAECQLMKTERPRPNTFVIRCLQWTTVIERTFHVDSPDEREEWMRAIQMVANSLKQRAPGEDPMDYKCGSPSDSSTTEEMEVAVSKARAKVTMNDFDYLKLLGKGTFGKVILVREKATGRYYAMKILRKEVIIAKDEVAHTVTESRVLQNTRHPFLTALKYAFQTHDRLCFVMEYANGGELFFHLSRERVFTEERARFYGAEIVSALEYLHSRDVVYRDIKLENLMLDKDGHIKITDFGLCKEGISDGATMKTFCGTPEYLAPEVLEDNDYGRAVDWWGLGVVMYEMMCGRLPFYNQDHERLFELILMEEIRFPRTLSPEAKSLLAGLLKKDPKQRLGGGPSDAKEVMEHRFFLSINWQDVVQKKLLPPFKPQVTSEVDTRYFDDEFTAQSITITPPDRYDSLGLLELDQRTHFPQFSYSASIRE
Chain of Phosphatidylinositol 4-kinase beta (Q9UBF8 2-816 limits assumed): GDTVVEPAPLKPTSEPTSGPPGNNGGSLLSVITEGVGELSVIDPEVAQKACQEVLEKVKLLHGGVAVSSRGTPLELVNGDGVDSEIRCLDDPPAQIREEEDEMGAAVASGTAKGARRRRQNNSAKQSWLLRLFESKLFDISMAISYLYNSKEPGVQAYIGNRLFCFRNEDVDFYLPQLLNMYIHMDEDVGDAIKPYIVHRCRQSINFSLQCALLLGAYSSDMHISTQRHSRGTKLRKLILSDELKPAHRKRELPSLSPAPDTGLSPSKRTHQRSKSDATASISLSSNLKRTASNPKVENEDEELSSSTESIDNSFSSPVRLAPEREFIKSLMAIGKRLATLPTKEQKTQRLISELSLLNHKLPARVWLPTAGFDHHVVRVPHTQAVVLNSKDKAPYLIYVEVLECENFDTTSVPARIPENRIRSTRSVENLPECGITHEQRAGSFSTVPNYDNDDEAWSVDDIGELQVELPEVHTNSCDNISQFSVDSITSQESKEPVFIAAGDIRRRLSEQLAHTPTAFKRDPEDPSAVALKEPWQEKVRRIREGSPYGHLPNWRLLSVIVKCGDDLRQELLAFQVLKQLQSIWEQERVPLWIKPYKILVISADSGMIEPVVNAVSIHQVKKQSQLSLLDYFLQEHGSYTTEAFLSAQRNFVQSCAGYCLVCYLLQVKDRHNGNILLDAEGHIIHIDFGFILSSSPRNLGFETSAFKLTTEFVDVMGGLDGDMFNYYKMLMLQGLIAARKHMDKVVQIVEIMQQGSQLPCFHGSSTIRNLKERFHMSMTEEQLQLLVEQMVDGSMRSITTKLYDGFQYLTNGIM

Turning to `C=CC(=O)Nc1ccc(C(=O)Nc2[nH]nc3c2CN(C(=O)N[C@H](CN(C)C)c2ccccc2)C3(C)C)cc1`, the % of engagement in [1] was -11.1%.

`CN(C)C/C=C/C(=O)Nc1ccc(C(=O)N2CCCC(Nc3ncc(Cl)c(-c4c[nH]c5ccccc45)n3)C2)cc1` (stereo unspecified): the % of control in test [2] stood at 69%.

For `Cc1cc([C@@H](C)Nc2ccccc2C(=O)O)c2nc(N3CCOCC3)cc(=O)n2c1` [AZD-6482], the figures for the % of control in test [3] and in test [4] were 58% and 95%, respectively.

Consider `O=C(NOC[C@H](O)CO)c1ccc(F)c(F)c1Nc1ccc(I)cc1F`, for which the % of control in test [5] was 46%.

Take `N#Cc1cccc(-c2c[nH]c3ncnc(N4CCOCC4)c23)c1`: the % of control in test [6] turned out to be 78%.

In test [7], `CC(=O)Nc1cccc(-n2c(=O)n(C3CC3)c(=O)c3c(Nc4ccc(I)cc4F)n(C)c(=O)c(C)c32)c1` yielded a % of control of 104%.

On to `COc1cc(Nc2nc(C)cc(-c3cnn4nc(OC)ccc34)n2)cc(C(F)(F)F)c1`, for which, in test [8], the % of control is 100%.

`Cc1cc(F)c(C(=O)Nc2cccc(-c3nncn3C(C)C)n2)cc1-n1cnc(C2CC2)c1` showed a % of control in test [9] of 100%.

Consider `C=CC(=O)Nc1cc(-n2c(=O)ccc3cnc4ccc(-c5ccc(NS(C)(=O)=O)cc5)cc4c32)ccc1C`, for which the % of control in [10] (at 1 µM) and in [10] (at 10 µM) was 100% in each case.

The values above are taken from ChEMBL document CHEMBL5465560, “Selectivity Literature for EUbOPEN Chemogenomic Library” (2024).
